From patent US12391737B2, “Soluble NPY2 receptor agonists” (Boehringer Ingelheim International GmbH, priority 2020, dated 2025)
*1 amine or outer side, *2 acyl side, *3 side chain or, on linkers, in order; H or OH if unused. Where a SMILES comes first, the peptide text is derived from it. Side-chain parts run from the residue outwards. The star is where a group is joined. C18 diacid = O=C(O)CCCCCCCCCCCCCCCCC(=O)*; γGlu = O=C(O)[C@H](CCC(=O)[*:2])N[*:1]; Isovaleryl = CC(C)CC(=O)*; Ahx = NCCCCCC(=O)O

Experiments:
[1] = Solubility determination; settings: for Sol6: pH 6; for Sol7: pH 7
Procedure, shortened: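 Shake-flask style: 10 mg/ml peptide (TFA salt), 0.1 M sodium diphosphate pH 6.4/7.0, 600 rpm, 2 h, RT; filter; dilute 1 mg/ml in 50% MeCN; RP-UPLC, 0–100% B over 2 min, 50 °C. Solubility = sample/control area ratio. Final pH recorded.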

[2] = target: T1, Human Neuropeptide Y2 Receptor (Homo sapiens, UniProt P49146); test: Radioligand binding competition assay (RLB); settings: Table 3, 125I-PYY(1-36) competition; read-out: Ki
T1 construct: purchased CHEMICON HTS066M
T1 sequence (P49146 1-381): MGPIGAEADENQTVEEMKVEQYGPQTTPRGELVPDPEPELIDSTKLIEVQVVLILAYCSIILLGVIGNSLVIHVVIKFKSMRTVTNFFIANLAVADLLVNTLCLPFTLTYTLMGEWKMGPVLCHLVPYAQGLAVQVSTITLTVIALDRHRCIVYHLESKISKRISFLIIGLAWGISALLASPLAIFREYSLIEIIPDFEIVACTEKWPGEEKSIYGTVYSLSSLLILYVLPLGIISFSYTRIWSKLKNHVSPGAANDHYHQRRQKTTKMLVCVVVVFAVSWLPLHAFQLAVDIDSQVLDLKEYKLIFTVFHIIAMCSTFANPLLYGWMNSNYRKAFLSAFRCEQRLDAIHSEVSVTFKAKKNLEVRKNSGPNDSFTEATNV
Procedure, shortened: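 Receptor membranes, 0.5 μg/well; buffer 50 mM HEPES/5 mM MgCl2/1 mM CaCl2/0.2% ovalbumin, pH 7.4; 2 h RT, shaking. GF/C filtration, cold HEPES/500 mM NaCl wash, scintillation count. IC50 by nonlinear regression.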

Structure (SMILES)	Sol6 [1]	Sol7 [1]	Ki [2]
CC(C)CC(=O)N[C@@H](C)C(=O)N1CCC[C@H]1C(=O)N[C@@H](CCC(=O)O)C(=O)N[C@@H](CCCCNC(=O)CCCCCNC(=O)CC[C@H](NC(=O)CCCCCCCCCCCCCCCCC(=O)O)C(=O)O)C(=O)N1CCC[C@H]1C(=O)N[C@@H](CCC(=O)O)C(=O)N[C@@H](CCC(=O)O)C(=O)N[C@@H](CC(=O)O)C(=O)N[C@@H](C)C(=O)N[C@@H](CO)C(=O)N[C@@H](CCC(=O)O)C(=O)N[C@@H](C)C(=O)N[C@@H](CCC(=O)O)C(=O)N[C@@H](CC(C)C)C(=O)N[C@@H](CCC(N)=O)C(=O)N[C@@H](CCCNC(=N)N)C(=O)N[C@@H](Cc1ccc(O)cc1)C(=O)N[C@@H](Cc1ccc(O)cc1)C(=O)N[C@H](C(=O)N[C@@H](CO)C(=O)N[C@@H](CC(C)C)C(=O)N[C@@H](CCCNC(=N)N)C(=O)N[C@@H](Cc1c[nH]cn1)C(=O)N[C@@H](Cc1ccc(O)cc1)C(=O)N[C@@H](Cc1ccc(O)cc1)C(=O)N[C@@H](CC(N)=O)C(=O)N[C@@H](Cc1c[nH]c2ccccc12)C(=O)N[C@@H](CC(C)C)C(=O)N[C@H](C(=O)N[C@@H](CCCNC(=N)N)C(=O)N[C@@H](CCC(N)=O)C(=O)N[C@@H](CCCNC(=N)N)C(=O)N[C@@H](Cc1ccc(O)cc1)C(N)=O)[C@@H](C)O)C(C)C [Compound 80, N{alpha-4}-(3-methylbutanoyl)-N{epsilon-7}-(6-[(4S)-4-carboxy-4-(17-carboxyheptadecanamido)butanamido]hexanoyl)-[4A,7K,9E,14E,15A,18Q,22V,28Y,30W,31L]-hPYY(4-36)]	8.1 mg/mL	8.2 mg/mL	4.62 nM
CC(C)CC(=O)N[C@@H](C)C(=O)N1CCC[C@H]1C(=O)N[C@@H](C)C(=O)N[C@@H](CCCCNC(=O)CCCCCNC(=O)CC[C@H](NC(=O)CCCCCCCCCCCCCCCCC(=O)O)C(=O)O)C(=O)N1CCC[C@H]1C(=O)N[C@@H](CCC(=O)O)C(=O)N[C@@H](CCC(=O)O)C(=O)N[C@@H](CC(=O)O)C(=O)N[C@@H](C)C(=O)N[C@@H](CCC(=O)O)C(=O)N1CCC[C@H]1C(=O)N[C@@H](CCC(=O)O)C(=O)N[C@@H](CCC(=O)O)C(=O)N[C@@H](CC(C)C)C(=O)N[C@@H](CCC(N)=O)C(=O)N[C@@H](CCCNC(=N)N)C(=O)N[C@@H](Cc1ccc(O)cc1)C(=O)N[C@@H](Cc1ccc(O)cc1)C(=O)N[C@H](C(=O)N[C@@H](CO)C(=O)N[C@@H](CC(C)C)C(=O)N[C@@H](CCCNC(=N)N)C(=O)N[C@@H](Cc1c[nH]cn1)C(=O)N[C@@H](Cc1ccc(O)cc1)C(=O)N[C@@H](Cc1ccc(O)cc1)C(=O)N[C@@H](CC(N)=O)C(=O)N[C@@H](Cc1c[nH]c2ccccc12)C(=O)N[C@@H](CC(C)C)C(=O)N[C@H](C(=O)N[C@@H](CCCNC(=N)N)C(=O)N[C@@H](CCC(N)=O)C(=O)N[C@@H](CCCNC(=N)N)C(=O)N[C@@H](Cc1ccc(O)cc1)C(N)=O)[C@@H](C)O)C(C)C [Compound 133, N{alpha-4}-(3-methylbutanoyl)-N{epsilon-7}-(6-[(4S)-4-carboxy-4-(17-carboxyheptadecanamido)butanamido]hexanoyl)-[4A,6A,7K,9E,13E,18Q,22V,28Y,30W,31L]-hPYY(4-36)]	9.6 mg/mL	9.7 mg/mL	4.68 nM

These reach a lower Ki [2]. Values come first.

Sol6 [1]	Sol7 [1]	Ki [2]	Structure (SMILES)
8.6 mg/mL	9.1 mg/mL	1.61 nM	CC(C)CC(=O)N[C@@H](C)C(=O)N1CCC[C@H]1C(=O)N[C@@H](C)C(=O)N[C@@H](CCCCNC(=O)CCCCCNC(=O)CC[C@H](NC(=O)CCCCCCCCCCCCCCCCC(=O)O)C(=O)O)C(=O)N1CCC[C@H]1C(=O)N[C@@H](CCC(=O)O)C(=O)N[C@@H](CCC(=O)O)C(=O)N[C@@H](CC(=O)O)C(=O)N[C@@H](C)C(=O)N[C@@H](CO)C(=O)N1CCC[C@H]1C(=O)N[C@@H](CCC(=O)O)C(=O)N[C@@H](CCC(=O)O)C(=O)N[C@H](C(=O)N[C@@H](CCC(N)=O)C(=O)N[C@@H](CCCNC(=N)N)C(=O)N[C@@H](Cc1ccc(O)cc1)C(=O)N[C@@H](Cc1ccc(O)cc1)C(=O)N[C@H](C(=O)N[C@@H](CO)C(=O)N[C@@H](CC(C)C)C(=O)N[C@@H](CCCNC(=N)N)C(=O)N[C@@H](Cc1c[nH]cn1)C(=O)N[C@@H](Cc1ccc(O)cc1)C(=O)N[C@@H](Cc1ccc(O)cc1)C(=O)N[C@@H](CC(N)=O)C(=O)N[C@@H](Cc1c[nH]c2ccccc12)C(=O)N[C@@H](CC(C)C)C(=O)N[C@H](C(=O)N[C@@H](CCCNC(=N)N)C(=O)N[C@@H](CCC(N)=O)C(=O)N[C@@H](CCCNC(=N)N)C(=O)N[C@@H](Cc1ccc(O)cc1)C(N)=O)[C@@H](C)O)C(C)C)[C@@H](C)O [Compound 85, N{alpha-4}-(3-methylbutanoyl)-N{epsilon-7}-(6-[(4S)-4-carboxy-4-(17-carboxyheptadecanamido)butanamido]hexanoyl)-[4A,6A,7K,9E,17T,18Q,22V,28Y,30W,31L]-hPYY(4-36)]
9.9 mg/mL	10.0 mg/mL	1.36 nM	CC(C)CC(=O)N[C@@H](C)C(=O)N1CCC[C@H]1C(=O)N[C@@H](CCC(=O)O)C(=O)N[C@@H](CCCCNC(=O)CCCCCNC(=O)CC[C@H](NC(=O)CCCCCCCCCCCCCCCCC(=O)O)C(=O)O)C(=O)N1CCC[C@H]1C(=O)N[C@@H](CCC(=O)O)C(=O)N[C@@H](C)C(=O)N[C@@H](CC(=O)O)C(=O)N[C@@H](CO)C(=O)N[C@@H](CO)C(=O)N1CCC[C@H]1C(=O)N[C@@H](CCC(=O)O)C(=O)N[C@@H](CCC(=O)O)C(=O)N[C@@H](CC(C)C)C(=O)N[C@@H](CCC(N)=O)C(=O)N[C@@H](CCCNC(=N)N)C(=O)N[C@@H](Cc1ccc(O)cc1)C(=O)N[C@@H](Cc1ccc(O)cc1)C(=O)N[C@H](C(=O)N[C@@H](CO)C(=O)N[C@@H](CC(C)C)C(=O)N[C@@H](CCCNC(=N)N)C(=O)N[C@@H](Cc1c[nH]cn1)C(=O)N[C@@H](Cc1ccc(O)cc1)C(=O)N[C@@H](Cc1ccc(O)cc1)C(=O)N[C@@H](CC(N)=O)C(=O)N[C@@H](Cc1c[nH]c2ccccc12)C(=O)N[C@@H](CC(C)C)C(=O)N[C@H](C(=O)N[C@@H](CCCNC(=N)N)C(=O)N[C@@H](CCC(N)=O)C(=O)N[C@@H](CCCNC(=N)N)C(=O)N[C@@H](Cc1ccc(O)cc1)C(N)=O)[C@@H](C)O)C(C)C [Compound 29, N{alpha-4}-(3-methylbutanoyl)-N{epsilon-7}-(6-[(4S)-4-carboxy-4-(17-carboxyheptadecanamido)butanamido]hexanoyl)[4A,7K,9E,10A,12S,18Q,22V,28Y,30W,31L]-hPYY(4-36)] (Isovaleryl-APEK([Ahx-γGlu-C18 diacid])PEADSSPEELQRYYVSLRHYYNWLTRQRY-NH2)
0.0 mg/mL	9.0 mg/mL	0.74 nM	CC(C)CC(=O)N[C@@H](C)C(=O)N1CCC[C@H]1C(=O)N[C@@H](CCC(=O)O)C(=O)N[C@@H](CCCCNC(=O)CCCCCNC(=O)CC[C@H](NC(=O)CCCCCCCCCCCCCCCCC(=O)O)C(=O)O)C(=O)N1CCC[C@H]1C(=O)N[C@@H](CCC(=O)O)C(=O)N[C@@H](C)C(=O)N1CCC[C@H]1C(=O)N[C@@H](C)C(=O)N[C@@H](CO)C(=O)N1CCC[C@H]1C(=O)N[C@@H](CCC(=O)O)C(=O)N[C@@H](CCC(=O)O)C(=O)N[C@@H](CC(C)C)C(=O)N[C@@H](CCC(N)=O)C(=O)N[C@@H](CCCNC(=N)N)C(=O)N[C@@H](Cc1ccc(O)cc1)C(=O)N[C@@H](Cc1ccc(O)cc1)C(=O)N[C@H](C(=O)N[C@@H](CO)C(=O)N[C@@H](CC(C)C)C(=O)N[C@@H](CCCNC(=N)N)C(=O)N[C@@H](Cc1c[nH]cn1)C(=O)N[C@@H](Cc1ccc(O)cc1)C(=O)N[C@@H](Cc1ccc(O)cc1)C(=O)N[C@@H](CC(N)=O)C(=O)N[C@@H](Cc1c[nH]c2ccccc12)C(=O)N[C@@H](CC(C)C)C(=O)N[C@H](C(=O)N[C@@H](CCCNC(=N)N)C(=O)N[C@@H](CCC(N)=O)C(=O)N[C@@H](CCCNC(=N)N)C(=O)N[C@@H](Cc1ccc(O)cc1)C(N)=O)[C@@H](C)O)C(C)C [Compound 192, N{alpha-4}-(3-methylbutanoyl)-N{epsilon-7}-(6-[(4S)-4-carboxy-4-(17-carboxyheptadecanamido)butanamido]hexanoyl)-[4A,7K,9E,10A,11P,18Q,22V,28Y,30W,31L]-hPYY(4-36)] (Isovaleryl-APEK([Ahx-γGlu-C18 diacid])PEAPASPEELQRYYVSLRHYYNWLTRQRY-NH2)
